The values below come from patent publication US20250353828A1, “SUBSTITUTED BIARYL ENDOCHIN-LIKE QUINOLONES WITH ENHANCED ANTIPARASITIC ACTIVITY” (Oregon Health & Science University, priority 2022, published 2025).

Where two headings read alike, the source gives them in different places.

For assay [1], the system named is P. falciparum D6 strain (drug sensitive). The assay is described as follows: In vitro antiplasmodial activity, SYBR Green I assay, D6 strain. Type of assay: cell-based, Plasmodium falciparum. The settings on record: Plasmodium falciparum, read-out: P. falciparum IC50 values, nM D6. The method, then: (§1) Rationale for Synthesis of a 3-Biaryl Version of ELQ-300. […] All of this information is stored in a database with information relating to chemical structure, physical chemical properties, cross resistance patterns, mammalian cell cytotoxicity, enzyme inhibitor profiles, and synthesis details. […] We employed the SyBr Green assay and the plates were incubated for 72 hours before harvesting^18, 19. […] Stock solutions were freshly prepared in DMSO.
(§2) Plasmodium falciparum Culture. Laboratory strains of P. falciparum were cultured in human erythrocytes by standard methods. The parasites were grown in culture medium with fresh human erythrocytes maintained at 2% hematocrit at 37° C. in low-oxygen conditions (5% O2, 5% CO2, […] balance N2). […] Cultures were maintained at less than 10% parasitemia by transfer of infected cells to fresh erythrocytes and culture medium every 3 or 4 days.
(§3) In vitro drug susceptibility assays. SYBR green I assay. In vitro antiplasmodial activity was assessed using a published SYBR Green I fluorescence-based method. The drugs were added to 96-well plates using 2-fold serial dilutions in complete medium. […] Asynchronous P. falciparum parasites were diluted with uninfected erythrocytes and added to the wells to give a final culture volume of 100 μl at 2% hematocrit and 0.2% parasitemia. […] The parasites were then lysed by adding 100 μl of SYBR green I lysis buffer containing 0.2 μl/ml SYBR green I dye (10,000×) in 20 mM Tris (pH 7.5), 5 mM EDTA, 0.008% (wt/vol) saponin, and 0.08% (vol/vol) Triton X-100. The plates were incubated at room temperature for an hour in the dark. […] If the IC50 value fell outside of the initial tested range then the range was adjusted up or down and the assay was repeated.

Assay [2] has as its system P. falciparum Tm90-C2B (atovaquone-resistant clinical isolate). The assay is described as follows: In vitro antiplasmodial activity, SYBR Green I assay, Tm90-C2B. To be noted: Plasmodium falciparum, read-out: P. falciparum IC50 values, nM Tm90-C2B. Type of assay: cell-based. The procedure: as §1, §2, §3
The test system of assay [3] is P. falciparum Dd2 strain (multidrug resistant). The assay is described as follows: microbe, parasite or virus in culture. Type of assay: cell-based, Plasmodium falciparum. To be noted: Plasmodium falciparum, DD2, 72 h, read-out: P. falciparum IC50 values, nM Dd2. The method, then:
as §1, §2, §3

Assay [4] relates to P. falciparum D1 clone (ELQ-300 resistant). The assay is described as follows: microbe, parasite or virus in culture. Type of assay: cell-based. The settings on record: Plasmodium falciparum, 72 h, read-out: P. falciparum IC50 values, nM D1.
The mark [5] stands for this setting: D6 strain, 72 h incubation, averages of quadruplicate with (95% confidence intervals).
Setting [6] is: Tm90-C2B strain, 72 h incubation, averages of quadruplicate with (95% confidence intervals).

As usually defined, the IC50 is the concentration that gives 50% inhibition. As to `COc1ccc(-c2ccc(-c3c(C)[nH]c4cc(OC)c(Cl)cc4c3=O)cc2)cc1` [ELQ-645, 6-chloro-7-methoxy-3-(4′-methoxy-[1,1′-biphenyl]-4-yl)-2-methylquinolin-4(1H)-one], the IC50 worked out at 5 nM in assay [1] (setting [5]) and 6 nM in assay [2] (setting [6]).
On the same counts, the results for `COc1cc2[nH]c(C)c(-c3ccc(-c4ccc(OC(F)(F)F)cc4)cc3)c(=O)c2cc1F` [ELQ-650, 6-fluoro-7-methoxy-2-methyl-3-(4′-(trifluoromethoxy)-[1,1′-biphenyl]-4-yl)quinolin-4(1H)-one] are 0.8 nM and 0.4 nM.
In the case of `COc1ccc2c(=O)c(-c3ccc(-c4cc(F)c(OC)c(F)c4)cc3)c(C)[nH]c2c1` [ELQ-734, 3-(3′,5′-difluoro-4′-methoxy-[1,1′-biphenyl]-4-yl)-7-methoxy-2-methylquinolin-4(1H)-one], the IC50 is 10.9 nM in assay [1] (setting [5]), 16.3 nM in assay [3], 6.4 nM in assay [2] (setting [6]) and 11.6 nM in assay [4].
Consider `COc1cc2[nH]c(C)c(-c3ccc(-c4ccc(C(C)(C)C)cc4)cc3)c(=O)c2cc1Cl` [ELQ-651, 3-(4′-(tert-butyl)-[1,1′-biphenyl]-4-yl)-6-chloro-7-methoxy-2-methylquinolin-4(1H)-one], for which the IC50 amounted to 1.1 nM in assay [1] (setting [5]) and 0.49 nM in assay [2] (setting [6]).
For `COc1ccc2c(=O)c(-c3ccc(-c4cccc(C(F)(F)F)c4)cc3)c(C)[nH]c2c1` [ELQ-730, 7-Methoxy-2-methyl-3-(3′-(trifluoromethyl)-[1,1′-biphenyl]-4-yl)quinolin-4(1H)-one], the IC50 in assay [1] (setting [5]) amounted to 5.02 nM; in assay [3], 5.33 nM; in assay [2] (setting [6]), 4.05 nM; in assay [4], 3.82 nM.
On the same counts, the results for `COc1ccc2c(=O)c(-c3ccc(-c4cc(F)c(OC(F)(F)F)c(F)c4)cc3)c(C)[nH]c2c1` [ELQ-733, 3-(3′,5′-difluoro-4′-(trifluoromethoxy)-[1,1′-biphenyl]-4-yl)-7-methoxy-2-methylquinolin-4(1H)-one] are 7.45 nM, 7.9 nM, 2.94 nM and 6.18 nM.
For `COc1cc2[nH]c(C)c(-c3ccc(-c4ccc(C#N)cc4)cc3)c(=O)c2cc1Cl` [ELQ-602, 4′-(6-chloro-7-methoxy-2-methyl-4-oxo-1,4-dihydroquinolin-3-yl)-[1,1′-biphenyl]-4-carbonitrile], the concentration for half-maximal inhibition (IC50) was 4.8 nM in assay [1] (setting [5]) and 10.9 nM in assay [2] (setting [6]).
Take `COc1cc2[nH]c(C)c(-c3ccc(-c4ccc(C)cc4)cc3)c(=O)c2cc1Cl` [ELQ-603, 6-chloro-7-methoxy-2-methyl-3-(4′-methyl-[1,1′-biphenyl]-4-yl)quinolin-4(1H)-one]: the IC50 in assay [1] (setting [5]) amounted to 1 nM; in assay [2] (setting [6]), 1.5 nM.
As for `COc1ccc2c(=O)c(-c3ccc(-c4ccc(C(F)(F)F)cc4OC)cc3)c(C)[nH]c2c1` [ELQ-757], the IC50 in assay [1] (D6, 72 h) was 3.08 nM; in assay [3], 4.85 nM; in assay [2] (TM90, 72 h), 3 nM; in assay [4], 1.91 nM.
For the compound `COc1cc2[nH]c(C)c(-c3ccc(-c4cccc(OC(F)(F)F)c4)cc3)c(=O)c2cc1Cl` [ELQ-604, 6-chloro-7-methoxy-2-methyl-3-(3′-(trifluoromethoxy)-[1,1′-biphenyl]-4-yl)quinolin-4(1H)-one], the IC50 in assay [1] (setting [5]) came out at 0.6 nM; in assay [2] (setting [6]), 0.5 nM.
For `COc1ccc2c(=O)c(-c3ccc(-c4ccc(F)cc4OC)cc3)c(C)[nH]c2c1` [ELQ-756, 3-(4′-Fluoro-2′-methoxy-[1,1′-biphenyl]-4-yl)-7-methoxy-2-methylquinolin-4(1H)-one], the IC50 in assay [1] (setting [5]) amounted to 3.27 nM; in assay [3], 4.46 nM; in assay [2] (setting [6]) it was 3.22 nM; in assay [4], 2.06 nM.
Regarding `COc1cc2[nH]c(C)c(-c3ccc(-c4cccc(C(F)(F)F)c4)cc3)c(=O)c2cc1Cl` [ELQ-646, 6-chloro-7-methoxy-2-methyl-3-(3′-(trifluoromethyl)-[1,1′-biphenyl]-4-yl)quinolin-4(1H)-one], the results for the IC50 in assay [1] (setting [5]) and in assay [2] (setting [6]) were 1.1 nM and 1 nM, respectively.
On to `Cc1[nH]c2ccccc2c(=O)c1-c1ccc(-c2ccc(OC(F)(F)F)cc2)cc1` [ELQ-649, 2-methyl-3-(4′-(trifluoromethoxy)-[1,1′-biphenyl]-4-yl)quinolin-4(1H)-one], for which the half-inhibitory concentration (IC50) in assay [1] (setting [5]) worked out at 7.9 nM; in assay [2] (setting [6]) it was 6 nM.
As to `COc1cc2[nH]c(C)c(-c3ccc(-c4ccc(Cl)cc4)cc3)c(=O)c2cc1Cl` [ELQ-637, 6-chloro-3-(4′-chloro-[1,1′-biphenyl]-4-yl)-7-methoxy-2-methylquinolin-4(1H)-one], the half-inhibitory concentration (IC50) in assay [1] (setting [5]) came to 3.4 nM; in assay [2] (setting [6]) it was 3 nM.
With `COc1cc2[nH]c(C)c(-c3ccc(-c4ccc(Oc5ccc(OC(F)(F)F)cc5)cc4)cc3)c(=O)c2cc1Cl` [ELQ-653], the IC50 in assay [1] (setting [5]) was found to be 1.5 nM; in assay [2] (setting [6]), 0.88 nM.
As to `Cc1[nH]c2c(c(=O)c1-c1ccc(-c3ccc(OC(F)(F)F)cc3)cc1)CCCC2` [ELQ-660], the figures for the IC50 in assay [1] (setting [5]) and in assay [2] (setting [6]) were 15.6 nM and 7.9 nM, respectively.
Consider `COc1ccc2c(=O)c(-c3ccc(-c4cc(C(F)(F)F)cc(C(F)(F)F)c4)cc3)c(C)[nH]c2c1` [ELQ-731, 3-(3′,5′-bis(trifluoromethyl)-[1,1′-biphenyl]-4-yl)-7-methoxy-2-methylquinolin-4(1H)-one], for which the IC50 in assay [1] (setting [5]) came to 3.93 nM; in assay [3] it was 4.73 nM; in assay [2] (setting [6]) it was 2.05 nM; in assay [4] it was 5.56 nM.
For the compound `COc1cc2[nH]c(C)c(-c3ccc(-c4ccc(OC(F)F)cc4)cc3)c(=O)c2cc1Cl` [ELQ-600, 6-chloro-3-(4′-(difluoromethoxy)-[1,1′-biphenyl]-4-yl)-7-methoxy-2-methylquinolin-4(1H)-one], the IC50 in assay [1] (setting [5]) stood at 3.9 nM; in assay [2] (setting [6]), 5.9 nM.
On the same counts, the results for `COc1cc2[nH]c(C)c(-c3ccc(-c4ccc(C(F)F)cc4)cc3)c(=O)c2cc1Cl` [ELQ-659, 6-chloro-3-(4′-(difluoromethyl)-[1,1′-biphenyl]-4-yl)-7-methoxy-2-methylquinolin-4(1H)-one] are 1.8 nM and 0.57 nM.
In the case of `Cc1[nH]c2cc(F)cc(F)c2c(=O)c1-c1ccc(-c2ccc(OC(F)(F)F)cc2)cc1` [ELQ-601, 5,7-difluoro-2-methyl-3-(4′-(trifluoromethoxy)-[1,1′-biphenyl]-4-yl)quinolin-4(1H)-one], the IC50 in assay [2] (setting [6]) was found to be 24.5 nM.
In the case of `COc1cc2[nH]c(C)c(-c3ccc(-c4ccc(C(F)(F)F)cc4)cc3)c(=O)c2cc1Cl` [ELQ-647, 6-chloro-7-methoxy-2-methyl-3-(4′-(trifluoromethyl)-[1,1′-biphenyl]-4-yl)quinolin-4(1H)-one], the IC50 in assay [1] (setting [5]) and in assay [2] (setting [6]) was 3.5 nM throughout.
Take `COc1ccc2c(=O)c(-c3ccc(-c4cccc(OC(F)(F)F)c4)cc3)c(C)[nH]c2c1` [ELQ-732, 7-methoxy-2-methyl-3-(3′-(trifluoromethoxy)-[1,1′-biphenyl]-4-yl)quinolin-4(1H)-one]: the IC50 came out at 15.9 nM in assay [1] (setting [5]), 16.3 nM in assay [3], 14.4 nM in assay [2] (setting [6]) and 10.6 nM in assay [4].
